Test results as given in patent US9572890B2, “Oral formulations of mitochondrially-targeted antioxidants and their preparation and use” (MITOTECH SA, priority 2011, dated 2017).

Tests used:
[1] = Accelerated decay experiment of SkQ1H2/ascorbic acid powder; assay type: physicochemical; details: powder 95% ascorbic acid and 5% SkQ1H2
Description: SkQ1H2, a reduced quinole form of SkQ, was prepared as follows: 10 ml SkQ1H2 solution (with concentration 1 mg/ml) in ethanol was thoroughly mixed with 200 mg ascorbic acid and then vacuum dried.

[2] = Storage stability of oxidized SkQ1 formulations (Example 8); assay type: physicochemical
Description: The stability of SkQ1 in the prepared solution was investigated by storage at RT and at 60° C. (Table 4).
The stability of SkQ1 in the prepared solution was investigated by storage at 60° C. (Table 5).
The stability of SkQ1 in the prepared composition was investigated by storage at 4° C. in darkness (Table 6).
The stability of SkQ1 in the prepared composition was investigated by storage at 60° C. in darkness (Table 7).
The stability of SkQ1 in the prepared composition was investigated by storage at RT in darkness (Table 8).
The stability of SkQ1 in the prepared composition was investigated by storage at 60° C. in darkness (Table 9).
The stability of SkQ1 in the prepared composition was investigated by storage at RT in darkness (Table 10).
The stability of SkQ1 in the prepared composition was investigated by storage at 60° C. in darkness (Table 11).

alloxan diabetes = test: Alloxan diabetes, blood glucose level (glucose oxidase method); assay type: in vivo, rats; details: 250 nM SkQ1 in drinking water (approx. 50 nmol/kg per day) 10 d before and 14 d after alloxan 100 mg/kg s.c.; 2 weeks after alloxan
Description: Induction of the alloxan diabetes was performed as follows: Two groups of laboratory rats (20 animals in each group) with free food and water access fed a 250 nM solution of SkQ1 for 10 d. The daily rat consumption was 60 ml water solution (containing 15 nmoles SkQ1). The average weight of rats was 300 g. Thus, rats consumed approximately 50 nmol/kg body weight per day. […] After 10 d, rats were subcutaneously (in the area of the thigh) injected with alloxan dissolved in isotonic salt solution of 0.9% w/v of NaCl (100 mg/kg body weight; groups “Alloxan+SkQ1” and “Alloxan.” Control animals were injected with salt solution without alloxan (groups “Control+SkQ1” and “Control”). After injection, the rats continued to drink water containing SkQ1 (250 nM) during 14 d (group “Alloxan+SkQ1”) or were kept without SkQ1 (group “Alloxan”). Data on glucose blood level was measured by the glucose oxidase method ([…] et al. (1958) J. Lab. Clin. Med., 51:445-460) after 2 weeks of alloxan injection. All data are presented as the mean+/-SE.

[3] = system: full-thickness dermal wounds of db/db mice; test: Wound healing in db/db diabetic mice; assay type: in vivo; details: SkQ1 in 20% glycerol, 250 nmol/kg per day, 10 to 12 weeks; 7 days after wounding
Text: Wound healing was studied in two series using 6 months old C57BLKS-Leprdb/J mice (db/db) homozygous and heterozygous C57BLKS-Leprdb/J mice (db/+) mice. These mice are used as type II diabetes model with impaired wound healing (Michaels, et al. (2007) Wound Repair and Regeneration, 15:665-670).
The mice were daily administered 250 nmol/kg body weight per day with the pharmaceutical form of SkQ1 in 20% glycerol as described in Example 8) during period of time from 10 weeks to 12 weeks. Control groups of db/db and db/+ mice were not treated with SkQ1. Full-thickness dermal wounds were made under anesthesia of ketamine (80 mg/kg). Animals were kept in plastic cages under standard temperature, light, and feeding regimes. 7 days after wounding, animals were sacrificed by decapitation. The wounds were excised, fixed in 10% formalin in standard PBS buffer, histologically processed, and embedded in paraffin. Histological sections of central part of the wounds were cut and stained with hematoxylin and eosin. The sections were immunohistochemically stained for markers of endothelial cells (CD31), macrophages (f4/80), and myofibroblasts (smooth muscle α-actin). ImageJ software (National Institutes of Health (NIH) http:/rsb.info.nih.gov/ij/) was used to calculate total amount of cells, number of neutrophils, macrophages and vessel density (vessel area/granulation tissue area*100) on the microphotographs of wound sections. For each animal 100 mm^2 of section area was analyzed. Wound epithelization rate was assessed in % as ratio of epithelized wound area to total wound area on tissue section*100. For statistical analysis nonparametric Mann-Whitney U-test was used. Data are shown as means±S.E.M.

[4] = system: collagen-induced arthritis; test: Collagen-induced arthritis (CIA); assay type: in vivo, Wistar rats; details: SkQ1 in water 250 nmol/kg per day from day 14 or day 24 after collagen injection
Description: Thirty Wistar rats with free food and water access were injected with complete Freund adjuvant and 250 mg type II collagen to induce CIA. Starting from 14 d and from 24 d after injection, two groups of 10 animals in each were daily fed with pharmaceutical form of SkQ1 in water comprising 250 nmol/kg body weight per day (groups “SkQ1 from day 14” and “SkQ1 from day 24”; Group “Control” received water without drugs).

endothelial cells = test: TNFα-caused dysfunction of endothelial barrier (microscopy of VE-cadherin, beta-cathenin, F-actin); assay type: cell-based
NFκB = NFκB activation caused by TNFα; assay type: cell-based
Text: Additionally, SkQ1 decreases the phosphorylation and degradation of IkBa caused by TNFα. NFκB is known to be permanently active in many inflammatory diseases, such as inflammatory bowel disease, arthritis, sepsis, gastritis, asthma and atherosclerosis (Monaco et al. (2004) PNAS., 101:5634-9).

CC1=C(C)C(=O)C(CCCCCCCCCC[P+](c2ccccc2)(c2ccccc2)c2ccccc2)=CC1=O [SkQ1]
SkQ1 purity ([1]; after storage for 12 d at 60° C.): 95.1% | loss from the initial concentration of the active compound ([1]; calculated for storage for 1 year at 4° C.): approximately 3.5% | SkQ1 purity ([1]; initial): 98.7% | SkQ1, % ([2]; SkQ1 1 mM in 20% glycerol, phosphate buffer pH 4.77, stored at 60° C., day 0): 99.34% | SkQ1, % ([2]; SkQ1 1 mM in 20% glycerol, phosphate buffer pH 4.77, stored at 60° C., day 19): 95.30% | SkQ1, % ([2]; SkQ1 1 mM in 20% glycerol, phosphate buffer pH 4.77, stored at RT, day 0): 99.34% | SkQ1, % ([2]; SkQ1 1 mM in 20% glycerol, phosphate buffer pH 4.77, stored at RT, day 11): 99.71% | SkQ1, % ([2]; SkQ1 1 mM in 20% glycerol, phosphate buffer pH 4.77, stored at RT, day 13): 99.76% | SkQ1, % ([2]; SkQ1 1 mM in 20% glycerol, phosphate buffer pH 4.77, stored at RT, day 14): 99.68% | SkQ1, % ([2]; SkQ1 1 mM in 20% glycerol, phosphate buffer pH 4.77, stored at RT, day 17): 99.62% | SkQ1, % ([2]; SkQ1 1 mM in 20% glycerol, phosphate buffer pH 4.77, stored at RT, day 19): 99.63% | SkQ1, % ([2]; SkQ1 1 mM in 20% glycerol, phosphate buffer pH 4.77, stored at RT, day 21): 99.52% | SkQ1, % ([2]; SkQ1 1 mM in 20% glycerol, phosphate buffer pH 4.77, stored at RT, day 24): 99.57% | SkQ1, % ([2]; SkQ1 1 mM in 20% glycerol, phosphate buffer pH 4.77, stored at RT, day 61): 99.49% | SkQ1, % ([2]; SkQ1 with PEG-4000, solid, 4° C. in darkness, day 18): >99.9% | SkQ1, % ([2]; SkQ1 with PEG-4000, solid, 4° C. in darkness, day 19): 99.83% | SkQ1, % ([2]; SkQ1 with PEG-4000, solid, 4° C. in darkness, day 20): 99.80% | SkQ1, % ([2]; SkQ1 with dextran and p-ABA, solid, 60° C. in darkness, day 0): 97.13% | SkQ1, % ([2]; SkQ1 with dextran and p-ABA, solid, 60° C. in darkness, day 6): 39.22% | SkQ1, % ([2]; SkQ1 with dextran and p-ABA, solid, 60° C. in darkness, day 15): 7.07% | SkQ1, % ([2]; SkQ1 with dextran, solid, 60° C. in darkness, day 0): 96.71% | SkQ1, % ([2]; SkQ1 with dextran, solid, 60° C. in darkness, day 6): 20.66% | SkQ1, % ([2]; SkQ1 with dextran, solid, 60° C. in darkness, day 15): 24.14% | SkQ1, % ([2]; SkQ1 with dextran, solid, 60° C. in darkness, day 25): 18.93% | SkQ1, % ([2]; SkQ1 with myoinosite, solid, RT in darkness, day 0): 95.88% | SkQ1, % ([2]; SkQ1 with myoinosite, solid, RT in darkness, day 5): 96.86% | SkQ1, % ([2]; SkQ1 with myoinosite, solid, RT in darkness, day 6): 95.99% | SkQ1, % ([2]; SkQ1 with myoinosite, solid, RT in darkness, day 15): 92.26% | SkQ1, % ([2]; SkQ1 with p-aminobenzoic acid (p-ABA), solid, RT in darkness, day 0): 100% | SkQ1, % ([2]; SkQ1 with p-aminobenzoic acid (p-ABA), solid, RT in darkness, day 30): 58.42% | SkQ1, % ([2]; presumably SkQ1 in 50% 1,2-propylene glycol with lactic acid (10 eq), 60° C., day 0): >99.9% | SkQ1, % ([2]; presumably SkQ1 in 50% 1,2-propylene glycol with lactic acid (10 eq), 60° C., day 72): 96.6% | SkQ1, % ([2]; presumably SkQ1 in 50% 1,2-propylene glycol with pyruvic acid (10 eq), 60° C., day 0): >99.9% | SkQ1, % ([2]; presumably SkQ1 in 50% 1,2-propylene glycol with pyruvic acid (10 eq), 60° C., day 72): 93.2% | blood glucose, lower compared to animals without SkQ1 treatment (alloxan diabetes): about 2 fold | neutrophil infiltration of wounds [3]: decreasing | rate of epithelization of wounds [3]: increasing | vascularization of wounds (vessel density) [3]: increasing | number of animals with apparent inflammation (increased paw volumes) [4]: reduced | disassembling of intracellular contacts and cytoskeleton reorganization caused by TNFα (endothelial cells): prevented | activation of NFκB (NFκB): prevent activation | phosphorylation and degradation of IkBa caused by TNFα (NFκB): decreases | translocation of transcription factor p65 (RelA) from the cytoplasm to the nucleus (NFκB): prevent translocation
